Laboratory results as given in ChEMBL document CHEMBL1806432, “Cytotoxic diterpenoid quinonemethides from the roots of Pygmacopremna herbacea” (Bioorg Med Chem Lett, 2011).
Values after ≈ are worked out from the molar mass of the structure shown.

Legend:
Type in all cases: functional, cell-based
MCF7 = assay: Cytotoxicity against human MCF7 cells after 48 hrs by MTT assay; conditions: MCF7, 48 h
A549 = assay: Cytotoxicity against human A549 cells after 48 hrs by MTT assay; conditions: A549, 48 h
HepG2 = assay: Cytotoxicity against human HepG2 cells after 48 hrs by MTT assay; conditions: HepG2, 48 h
PC-3 = assay: Cytotoxicity against human PC3 cells after 48 hrs by MTT assay; conditions: PC-3, 48 h
HeLa = assay: Cytotoxicity against human HeLa cells after 48 hrs by MTT assay

| Compound | IC50 (MCF7) [µg/mL] | IC50 (A549) [µg/mL] | IC50 (HepG2) [µg/mL] | IC50 (PC-3) [µg/mL] | IC50 (HeLa) [µg/mL] |
| --- | --- | --- | --- | --- | --- |
| CC(C)C1=CC2=CC=C3C(C)(C)CC(=O)C[C@@]3(C)C2=C(O)C1=O | 27.6 (≈ 88.3 µM) | 17.6 (≈ 56.3 µM) | 38.2 (≈ 122 µM) | 1.7 (≈ 5.44 µM) | 15.6 (≈ 49.9 µM) |
| CC(C)C1=CC2=CC=C3C(C)(C)CC(=O)O[C@@]3(C)CC2=C(O)C1=O [BHARANGIN] | 0.006 (≈ 0.0183 µM) | 2.03 (≈ 6.18 µM) | 14.3 (≈ 43.5 µM) | 2.95 (≈ 8.98 µM) | 14.1 (≈ 42.9 µM) |
| CC(C)C1=CC2=CC=C3C(C)(C)COC(=O)[C@@]3(C)CC2=C(O)C1=O [NEOBHARANGIN] | 0.39 (≈ 1.19 µM) | 2.61 (≈ 7.95 µM) | 13 (≈ 39.6 µM) | 48.6 (≈ 148 µM) | 104 (≈ 318 µM) |
| CC(C)C1=CC2=CC=C3C(C)(C)[C@@H](O)C(=O)C[C@]3(C)C2=C(O)C1=O [ISOBHARANGIN] | 28.2 (≈ 85.9 µM) | 24.1 (≈ 73.4 µM) | 6.29 (≈ 19.2 µM) | 62.2 (≈ 189 µM) | 103 (≈ 315 µM) |
| COc1cccc2c1C(=O)c1c(O)c3c(c(O)c1C2=O)C[C@@](O)(C(=O)CO)C[C@@H]3O[C@H]1C[C@H](N)[C@H](O)[C@H](C)O1 [DOXORUBICIN] |  | 0.51 (≈ 0.938 µM) | 1.6 (≈ 2.94 µM) | 2.3 (≈ 4.23 µM) | 0.24 (≈ 0.442 µM) |
